From patent US20260250320A1, “LIPIDATED PEPTIDE INHIBITORS OF INTERLEUKIN-23 RECEPTOR” (Janssen Pharmaceutica NV, priority 2023, published 2026)
*1 amine or outer side, *2 acyl side, *3 side chain or, on linkers, in order; H or OH if unused. Where a SMILES comes first, the peptide text is derived from it. Bridges are numbered along the chain shown (N, C = ends). Side-chain parts run from the residue outwards. [ ]: non-standard residue; d: D form. The star is where a group is joined. X12 = O=C(O)CCCCCCCCCCCCCCCCC(=O)C[C@@H](CCC(=O)*)C(=O)O; Me3N+(CH2)2O(CH2)2O(CH2)2CO = C[N+](C)(C)CCOCCOCCC(=O)*; PEG12 = NCCOCCOCCOCCOCCOCCOCCOCCOCCOCCOCCOCCOCCC(=O)O; Trp(7-Me,2,3-dihydro) = Cc1cccc2c1NCC2C[C@H](N)C(=O)O; Trp(7-Me) = Cc1cccc2c(C[C@H](N)C(=O)O)c[nH]c12; C20 diacid = O=C(O)CCCCCCCCCCCCCCCCCCC(=O)*; C18 diacid = O=C(O)CCCCCCCCCCCCCCCCC(=O)*; γGlu = O=C(O)[C@H](CCC(=O)[*:2])N[*:1]; 2Nal = N[C@@H](Cc1ccc2ccccc2c1)C(=O)O; AEF = NCCOc1ccc(C[C@H](N)C(=O)O)cc1; 3Pal = N[C@@H](Cc1cccnc1)C(=O)O; Lys(Me) = CNCCCC[C@H](N)C(=O)O; PEG4 = NCCOCCOCCOCCOCCC(=O)O; Pen = CC(C)(S)[C@H](N)C(=O)O; Thp = NC1(C(=O)O)CCOCC1; X1 = C[N+](C)(C)CCCCC*; AEEA = NCCOCCOCC(=O)O; ClAc = O=C(CCl)*; Sar = CNCC(=O)O

How the values were obtained:
[1] = tested on: IL-23-stimulated phosphorylated STAT3 in peripheral blood mononuclear cells (PBMCs); test: PBMC pSTAT3 Assay; format: cell-based; settings: PBMCs from healthy donors; 30 min preincubation with peptide; IL-23 5 ng/mL for 30 min; phospho-STAT3 by MSD
Summary of the method: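 Healthy-donor PBMCs expanded 4 days on anti-CD3 with 100 ng/mL IL-1β, starved ~4 h in RPMI-0.1% BSA, preincubated 30 min with peptide, then stimulated 30 min at 37 °C with 5 ng/mL IL-23. Lysate pSTAT3 measured by MSD phospho-STAT panel; IC50 derived.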

IL-23R = molecular target: T1, IL-23R (Homo sapiens, UniProt Q5VWK5); test: IL23R Reporter Assay; format: cell-based; settings: HEK293 cells containing IL-23R, IL-12Rβ1 and STAT-inducible firefly luciferase reporter; 10 ng/mL IL-23 (EC90); 5 h
T1 construct: HEK293 cells containing IL-23R, IL-12Rβ1 and a firefly luciferase reporter gene driven by a STAT-inducible promoter (Promega); host or cells: HEK293
T1 sequence (Q5VWK5 24-629): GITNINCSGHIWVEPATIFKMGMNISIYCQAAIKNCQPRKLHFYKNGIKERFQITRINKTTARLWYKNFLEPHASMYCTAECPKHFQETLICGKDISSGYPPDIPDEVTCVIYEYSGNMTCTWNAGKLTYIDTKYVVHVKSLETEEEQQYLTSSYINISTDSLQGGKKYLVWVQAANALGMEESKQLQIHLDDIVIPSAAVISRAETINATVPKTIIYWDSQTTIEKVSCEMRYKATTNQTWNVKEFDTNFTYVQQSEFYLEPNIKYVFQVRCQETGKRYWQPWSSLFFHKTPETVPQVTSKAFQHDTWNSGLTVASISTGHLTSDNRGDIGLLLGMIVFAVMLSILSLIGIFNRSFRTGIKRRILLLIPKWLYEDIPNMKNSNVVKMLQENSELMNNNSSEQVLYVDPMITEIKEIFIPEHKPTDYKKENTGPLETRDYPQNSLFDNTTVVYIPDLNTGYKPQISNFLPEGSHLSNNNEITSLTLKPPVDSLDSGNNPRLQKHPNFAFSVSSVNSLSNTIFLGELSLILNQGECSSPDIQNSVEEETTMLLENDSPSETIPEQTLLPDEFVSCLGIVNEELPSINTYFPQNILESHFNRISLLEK
Summary of the method: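 HEK293 cells carrying IL-23R, IL-12Rβ1 and a STAT-driven firefly luciferase reporter (4000 cells/well) received compound, then 10 ng/mL IL-23 solution (EC90), and were incubated for 5 h at 37° C. BioGlo luminescence was normalised to IL-23 alone (0%) and 30 μM control inhibitor (100%). IC50 came from a 4-parameter Hill fit.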

SMILES	IC50 [1] [nM]	IC50 (IL-23R) [nM]
Cc1cccc2c(C[C@@H]3NC(=O)[C@H]([C@@H](C)O)NC(=O)[C@H](CC(N)=O)NC(=O)[C@@H](NC(=O)[C@@H](CCCNC(=N)N)CC(=O)COCCOCCNC(=O)COCCOCCNC(=O)CC[C@H](NC(=O)CCCCCCCCCCCCCCCCC(=O)O)C(=O)O)C(C)(C)SSC(C)(C)[C@@H](C(=O)N[C@@H](Cc4ccc(OCCN)cc4)C(=O)N[C@@H](Cc4ccc5ccccc5c4)C(=O)NC4(C(=O)N[C@@H](CCC(=O)O)C(=O)N[C@@H](CC(N)=O)C(=O)N[C@@H](Cc5cccnc5)C(=O)N(C)CC(N)=O)CCOCC4)NC(=O)[C@H](CCCCN(C)C(=O)CCCCCOCC[N+](C)(C)C)NC3=O)c[nH]c12 [compound 84, HOC18gEPEG2PEG2CO-r-Pen(3)-N-T-7MeW-K(NMecPEG3a)-Pen(3)-AEF-2Nal-THP-E-N-3Pya-Sar-CONH2]	< 0.5	< 50
CC(=O)N(C)CCCC[C@H](CC(=O)C1(NC(=O)[C@H](Cc2ccc3ccccc3c2)NC(=O)[C@H](Cc2ccc(OCCNC(=O)C[N+](C)(C)CCNC(=O)CCOCCOCCOCCOCCOCCOCCOCCOCCOCCOCCOCCOCCNC(=O)CC[C@H](NC(=O)CCCCCCCCCCCCCCCCCCC(=O)O)C(=O)O)cc2)NC(=O)[C@H]2NC(=O)[C@H](CCCCN(C)C(C)=O)NC(=O)[C@H](Cc3c[nH]c4c(C)cccc34)NC(=O)[C@H]([C@@H](C)O)NC(=O)[C@H](CC(=O)N(C)C)NC(=O)[C@@H](NC(=O)CCOCCOCC[N+](C)(C)C)C(C)(C)SSC2(C)C)CCCCC1)C(=O)C[C@@H](CC(N)=O)C(=O)C[C@@H](Cc1cccnc1)C(=O)N(C)CC(=O)N(C)C [compound 139, cPEG3aCO-Pen(3)-N(N(Me)2)-T-7MeW-K(NMeAc)-Pen(3)-AEF(SP6PEG12gEC20OH)-2Nal-THP-K(NMeAc)-N-3Pya-Sar-CON(Me)2]	< 0.5	< 50
CC(=O)NCCCC[C@@H]1NC(=O)[C@H](CC2CNc3c(C)cccc32)NC(=O)[C@H]([C@@H](C)O)NC(=O)[C@H](CC(N)=O)NC(=O)[C@@H](NC(=O)[C@@H](CCCNC(=N)N)NC(C)=O)C(C)(C)SSC(C)(C)[C@@H](C(=O)N[C@@H](Cc2ccc(OCCN)cc2)C(=O)N[C@@H](Cc2ccc3ccccc3c2)C(=O)NCC(=O)N[C@@H](CCCCNC(=O)CCOCCOCCOCCOCCOCCOCCOCCOCCOCCOCCOCCOCCNC(=O)CC[C@H](NC(=O)CCCCCCCCCCCCCCCCC(=O)O)C(=O)O)C(=O)N[C@@H](CC(N)=O)C(=O)N[C@@H](Cc2cccnc2)C(=O)N(C)CC(N)=O)NC1=O (stereo partly drawn) [compound 146, MeCO-r-Pen(3)-N-T-7MeW-K(Ac)-Pen(3)-AEF-2Nal-THP-K(PEG12gEC18OH)-N-3Pya-Sar-CONH2] (Ac-[dR][Pen]NT[Trp(7-Me,2,3-dihydro)]K(Ac)[Pen][AEF][2Nal]GK([PEG12-γGlu-C18 diacid])N[3Pal][Sar]-NH2; disulfide 2-7)	< 0.5	50 to 500
CC(=O)N(C)CCCC[C@@H]1NC(=O)[C@H](Cc2c[nH]c3c(C)cccc23)NC(=O)[C@H]([C@@H](C)O)NC(=O)[C@H](CCCCNC(=O)CCOCCOCCOCCOCCOCCOCCOCCOCCOCCOCCOCCOCCNC(=O)CC[C@H](CC(=O)CCCCCCCCCCCCCCCCC(=O)O)C(=O)O)NC(=O)[C@@H](NC(=O)CCOCCOCC[N+](C)(C)C)C(C)(C)SSC(C)(C)[C@@H](C(=O)N[C@@H](Cc2ccc(OCCCCC[N+](C)(C)C)cc2)C(=O)N[C@@H](Cc2ccc3ccccc3c2)C(=O)NC2(C(=O)N[C@@H](CCCCN(C)C(C)=O)C(=O)N[C@@H](CC(N)=O)C(=O)N[C@@H](Cc3cccnc3)C(=O)N(C)CC(=O)N(C)C)CCOCC2)NC1=O [compound 125, cPEG3aCO-Pen(3)-K(PEG12gEC18OH)-T-7MeW-K(NMeAc)-Pen(3)-TMAPF-2Nal-THP-K(NMeAc)-N-3Pya-Sar-CON(Me)2] ({Me3N+(CH2)2O(CH2)2O(CH2)2CO}-[Pen]K([PEG12-X12])T[Trp(7-Me)][Lys(Me)](Ac)[Pen]Y(X1)[2Nal][Thp][Lys(Me)](Ac)N[3Pal][Sar]-NMe2; disulfide 1-6)	0.5 to 5	< 50
CC(=O)NCCCC[C@@H]1NC(=O)[C@H](Cc2c[nH]c3c(C)cccc23)NC(=O)[C@H]([C@@H](C)O)NC(=O)[C@H](CC(N)=O)NC(=O)[C@@H](NC(=O)[C@@H](CCCNC(=N)N)NC(C)=O)C(C)(C)SSC(C)(C)[C@@H](C(=O)N[C@@H](Cc2ccc(OCCN)cc2)C(=O)N[C@@H](Cc2ccc3ccccc3c2)C(=O)NC2(C(=O)N[C@@H](CCCCNC(=O)CCOCCOCCOCCOCCNC(=O)CCl)C(=O)N[C@@H](CC(N)=O)C(=O)N[C@@H](Cc3cccnc3)C(=O)N(C)CC(=O)N[C@@H](CCCCNC(=O)COCCOCCNC(=O)COCCOCCNC(=O)CC[C@H](NC(=O)CCCCCCCCCCCCCCCCC(=O)O)C(=O)O)C(N)=O)CCOCC2)NC1=O [compound 4, MeCO-r-Pen(3)-N-T-7MeW-K(Ac)-Pen(3)-AEF-2Nal-THP-K(PEG4AcCl)-N-3Pya-Sar-K(PEG2PEG2gEC18OH)-CONH2] (Ac-[dR][Pen]NT[Trp(7-Me)]K(Ac)[Pen][AEF][2Nal][Thp]K([PEG4-ClAc])N[3Pal][Sar]K([AEEA-AEEA-γGlu-C18 diacid])-NH2; disulfide 2-7)	< 0.5	< 50
CC(=O)NCCCC[C@@H]1NC(=O)[C@H](Cc2c[nH]c3c(C)cccc23)NC(=O)[C@H]([C@@H](C)O)NC(=O)[C@H](CC(N)=O)NC(=O)[C@@H](NC(=O)[C@@H](CCCCNC(=O)CCOCCOCCOCCOCCOCCOCCOCCOCCOCCOCCOCCOCCNC(=O)CC[C@H](NC(=O)CCCCCCCCCCCCCCCCC(=O)O)C(=O)O)NC(C)=O)C(C)(C)SSC(C)(C)[C@@H](C(=O)N[C@@H](Cc2ccc(OCCN)cc2)C(=O)N[C@@H](Cc2ccc3ccccc3c2)C(=O)NC2(C(=O)N[C@@H](CCCCNC(C)=O)C(=O)N[C@@H](CC(N)=O)C(=O)N[C@@H](Cc3cccnc3)C(=O)N(C)CC(N)=O)CCOCC2)NC1=O [compound 98, MeCO-k(PEG12gEC18OH)-Pen(3)-N-T-7MeW-K(Ac)-Pen(3)-AEF-2Nal-THP-K(Ac)-N-3Pya-Sar-CONH2] (Ac-[dK]([PEG12-γGlu-C18 diacid])[Pen]NT[Trp(7-Me)]K(Ac)[Pen][AEF][2Nal][Thp]K(Ac)N[3Pal][Sar]-NH2; disulfide 2-7)	< 0.5	< 50
CC(=O)NCCCC[C@@H]1NC(=O)[C@H](Cc2c[nH]c3c(C)cccc23)NC(=O)[C@H]([C@@H](C)O)NC(=O)[C@H](CC(N)=O)NC(=O)[C@@H](NC(=O)[C@@H](CCCCNC(=O)CCOCCOCCOCCOCCOCCOCCOCCOCCOCCOCCOCCOCCNC(=O)CC[C@H](NC(=O)CCCCCCCCCCCCCCCCCCC(=O)O)C(=O)O)NC(C)=O)C(C)(C)SSC(C)(C)[C@@H](C(=O)N[C@@H](Cc2ccc(OCCN)cc2)C(=O)N[C@@H](Cc2ccc3ccccc3c2)C(=O)NC2(C(=O)N[C@@H](CCCCNC(C)=O)C(=O)N[C@@H](CC(N)=O)C(=O)N[C@@H](Cc3cccnc3)C(=O)N(C)CC(N)=O)CCOCC2)NC1=O [compound 104, MeCO-k(PEG12gEC20OH)-Pen(3)-N-T-7MeW-K(Ac)-Pen(3)-AEF-2Nal-THP-K(Ac)-N-3Pya-Ser-CONH2] (Ac-[dK]([PEG12-γGlu-C20 diacid])[Pen]NT[Trp(7-Me)]K(Ac)[Pen][AEF][2Nal][Thp]K(Ac)N[3Pal][Sar]-NH2; disulfide 2-7)	< 0.5	< 50
